Earlier results as cited in publication PMC10046020, “In Silico Screening and Optimization of Cell-Penetrating Peptides Using Deep Learning Methods” (Biomolecules, 2023).
Read-outs that look alike come from different tables or passages of the source.

Conditions: cited from earlier work; for class (CPP / Non-CPP), Train Set: Spreadsheet S2: peptides collected from CellPPD
From the text: Supplement biomolecules-13-00522-s001.zip/biomolecules-2162660_Supplementary Spreadsheets S1 Test Set.csv, table | column: class || Supplement biomolecules-13-00522-s001.zip/biomolecules-2162660_Supplementary Spreadsheets S2 Train Set.csv, table | column: class

[1] = Spreadsheet S1: 150 CPP and 150 non-CPP peptides collected from CellPPD, MLCPP, CPPsite 2.0, Lifetein and other publications
[2] = MLCPP, CPPsite 2.0, Lifetein and other publications

Row | Substance | class (CPP / Non-CPP), Test Set [1] | class (CPP / Non-CPP), Test Set | also measured
1 | GWTLHSAGYLLGPHAI | Non-CPP | – | –
2 | RRLLRRLRR | – | CPP | –
3 | QAHVHVWHKYSVKTVYH | Non-CPP | – | –
4 | FFLIPKGRRRRRRRRR | CPP | – | –
5 | QNLGNDWAVGHLM | – | Non-CPP | –
6 | PKKKRKVRRRRRRRPQMQQNVFQYPGAGMVPQGEANF | CPP | – | –
7 | NYRWRCKN | – | CPP | –
8 | CYFQNCPVG | – | Non-CPP | –
9 | CVCVKTTSLVRPRHI | Non-CPP | – | –
10 | SYNTF | – | Non-CPP | –
11 | ARRCSGSGSGCGSGSGSCGRR | CPP | – | –
12 | ENGPDQWSKLYP | – | Non-CPP | –
13 | LALALALALALALAKLAKLAKLAKLAKIKKIKKKIK | CPP | – | –
14 | GLFLDTLKGLAGKLLQGLKCIKAGCKP | Non-CPP | – | –
15 | AKRGARSTA | CPP | – | –
16 | SWFASTGGRDSKIDVWSLVP | Non-CPP | – | –
17 | LIRLWSHLIHIWFQNRRLKWKKKC | CPP | – | –
18 | AGYLLGKTNLKALAALAKKIL | CPP | – | –
19 | VDFEEAYLAVS | – | Non-CPP | –
20 | SNGHACRPW | – | Non-CPP | –
21 | PLGPVVHKCCPGFGGLQWLPLLWNWYQNMWGN | Non-CPP | – | –
22 | KNNLKECGLY | – | CPP | –
23 | GRCTKSIPPICFPA | CPP | – | –
24 | RARRNRRARILFQYRARNRARN | CPP | – | –
25 | DFDMLRCMLGRVYYPCWQV | Non-CPP | – | –

Row | Substance | class (CPP / Non-CPP), Test Set [1] | class (CPP / Non-CPP), Test Set | also measured
26 | AHALCLTEFQIKSNRRMKWKKEN | Non-CPP | – | –
27 | AAVALLPAVLLALLAKNNLKECGLY | CPP | – | –
28 | NTCTWLKYHS | – | CPP | –
29 | NYRWRCK | – | CPP | –
30 | IYLATALAKWALKQGGRRRRRRR | – | – | class (CPP / Non-CPP), Train Set [2]: CPP
31 | YSSQHLCGSNLVEALYMTCGRSGFYRPHD | Non-CPP | – | –
32 | FVPFFTHSELQKIREKERNKGQ | Non-CPP | – | –
33 | RKKRRQRRRGKKKKKKKKKKKKKKKGRKKRRQRRR | CPP | – | –
34 | VIVTERVLLLVAP | – | Non-CPP | –
35 | CVKLNDGHFMPVLGFGTYAPPEVPRSKALEVTKLA | Non-CPP | – | –
36 | DFDMLRCMLGRVYRPCWQV | Non-CPP | – | –
37 | QSGAKPGHCEWQSTHLKNCEKVNDIRQPPHHQRS | Non-CPP | – | –
38 | GRGDGPRRKKKKGPRRKKKKGPRR | CPP | – | –
39 | IYLATALAKWALKQGFGGRRRRRRR | – | – | class (CPP / Non-CPP), Train Set [2]: CPP
40 | QIFWDSRHPSQH | – | Non-CPP | –
41 | RFVHNC | – | Non-CPP | –
42 | ACSGRGSGCGSGRGSCG | CPP | – | –
43 | CDAGRKQKC | – | CPP | –
44 | VQQQQPLGQQQP | – | Non-CPP | –
45 | GWTNLSAGYLLGPPPGFSPFS | Non-CPP | – | –
46 | RPEGQNYTEGIAVVF | Non-CPP | – | –
47 | KKKQYTWIHHGVVEVD | Non-CPP | – | –
48 | FHFHFRFR | – | CPP | –
49 | LLIILRRPIRKQAHAHSK | CPP | – | –
50 | PDEIGGKFPTAYVQDYLINPE | Non-CPP | – | –

Row | Substance | class (CPP / Non-CPP), Test Set [1] | class (CPP / Non-CPP), Test Set | also measured
51 | ARFSNPGVWSKVAADIFNMALDTALA | Non-CPP | – | –
52 | TAMRAVDKLLLHLKKLFREGQFNRNFESIIICRDRT | CPP | – | –
53 | NAKTRRHERRRKLAIER | CPP | – | –
54 | ACSGSGSGCGSGSGSCGRRRRRRRR | CPP | – | –
55 | FLPFLAKILTGVL | – | Non-CPP | –
56 | WRRRYRRWRRRRRWRRRPRR | CPP | – | –
57 | DAATARGRGRSAASRPTERPRAPARSASRPRRPVD | CPP | – | –
58 | GGTSSSDAQQSLQSFWPRVM | Non-CPP | – | –
59 | SHMMGEFWGDEDMCYRHQRSYET | Non-CPP | – | –
60 | CARSKNKDC | – | CPP | –
61 | LLGKGNLKALAALAKKIL | Non-CPP | – | –
62 | RRRRRRRRRR | – | CPP | –
63 | RRRRRRRRRRWWWWWW | CPP | – | –
64 | IPLVVPLC | – | CPP | –
65 | RRRRRRWWW | – | CPP | –
66 | TFFYGGSRGKRNNFKTEEY | CPP | – | –
67 | IKRYLIKR | – | Non-CPP | –
68 | LNSLGYLLGKALAALAKKIL | Non-CPP | – | –
69 | NTGTWLKYHS | – | CPP | –
70 | VKRFKKFFRKLKKLV | CPP | – | –
71 | KLAKLAKKLAKLAKGGRRRRRRR | CPP | – | –
72 | LMLRTVGYKFHCSLPVNAVHCSLK | Non-CPP | – | –
73 | TPTSPSSPGLSPVPPPDKVDGFSRRSLRRARPRR | Non-CPP | – | –
74 | QNLGNQWAVGHLM | – | Non-CPP | –
